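Test compounds were applied to cells in 96-well plates for 48 hours at 5 doses. The concentration for 50% growth inhibition is given as GI50. TGI marks complete inhibition of growth.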
How the values were obtained:
Assay in all cases: DTP human tumour cell line panel, 48 h
[1] = system: HOP-62 NSCLC
[2] = system: HCC-2998 colon
[3] = system: EKVX NSCLC
[4] = system: OVCAR-4 ovarian
[5] = system: MDA-MB-435
[6] = system: SK-OV-3 ovarian
[7] = system: SF-539 CNS
[8] = system: KM12 colon
[9] = system: IGROV1 ovarian
[10] = system: MALME-3M melanoma
[11] = system: NCI-H460 lung
[12] = system: HS 578T breast
[13] = system: OVCAR-3 ovarian
[14] = system: SR leukemia
[15] = system: U251 CNS
[16] = system: UO-31 renal
[17] = system: 786-0 renal
[18] = system: UACC-257 melanoma
[19] = system: SF-295 CNS
[20] = system: K-562 leukemia
[21] = system: OVCAR-8 ovarian
[22] = system: RXF 393 renal
[23] = system: MDA-MB-231 breast
[24] = system: A498 renal
[25] = system: SK-MEL-2 melanoma
[26] = system: NCI-H226 lung
[27] = system: CCRF-CEM leukemia
[28] = system: BT-549 breast
[29] = system: TK-10 renal
[30] = system: SF-268 CNS
[31] = system: LOX IMVI melanoma
[32] = system: M14 melanoma
[33] = system: SN12C renal
[34] = system: NCI/ADR-RES ovarian
[35] = system: COLO 205 colon
[36] = system: ACHN renal
[37] = system: HCT-15 colon
[38] = system: SW-620 colon
[39] = system: DU-145 prostate
[40] = system: RPMI-8226 leukemia
[41] = system: SNB-75 CNS
[42] = system: SK-MEL-28 melanoma
[43] = system: PC-3 prostate
[44] = system: HL-60(TB) leukemia
[45] = system: HT29 colon
[46] = system: HOP-92 NSCLC
[47] = system: CAKI-1 renal
[48] = system: NCI-H522 lung
[49] = system: MCF7 breast
[50] = system: HCT-116 colon
[51] = system: UACC-62 melanoma
[52] = system: SK-MEL-5 melanoma
[53] = system: NCI-H23 lung
[54] = system: SNB-19 CNS
[55] = system: A549 NSCLC
[56] = system: MOLT-4 leukemia
[57] = system: T-47D breast
[58] = system: OVCAR-5 ovarian

COc1cccc(-c2nn(-c3ccccc3)cc2-c2ccnc(NCCNS(=O)(=O)c3ccc(C(F)(F)F)cc3)c2)c1
GI50 [1]: 4.16 µM
TGI [1]: 43.6 µM
GI50 [2]: 3.36 µM
TGI [2]: 24.8 µM
GI50 [3]: 3.16 µM
TGI [3]: > 100 µM
GI50 [4]: 2.94 µM
TGI [4]: > 100 µM
GI50 [5]: 3.23 µM
TGI [5]: 17.5 µM
GI50 [6]: 3 µM
TGI [6]: 11.1 µM
GI50 [7]: 2.48 µM
TGI [7]: 6.28 µM
GI50 [8]: 3.02 µM
TGI [8]: 16.7 µM
GI50 [9]: 4.19 µM
TGI [9]: > 100 µM
GI50 [10]: 2.33 µM
TGI [10]: 6.81 µM
GI50 [11]: 3.47 µM
TGI [11]: > 100 µM
GI50 [12]: 4.07 µM
TGI [12]: > 100 µM
GI50 [13]: 2.59 µM
TGI [13]: 7.3 µM
GI50 [14]: 1.77 µM
TGI [14]: 4.6 µM
GI50 [15]: 3.54 µM
TGI [15]: 13.9 µM
GI50 [16]: 2.61 µM
TGI [16]: > 100 µM
GI50 [17]: 2.63 µM
TGI [17]: 21.4 µM
GI50 [18]: 3.14 µM
TGI [18]: 15 µM
GI50 [19]: 2.91 µM
TGI [19]: 8.67 µM
GI50 [20]: 2.87 µM
TGI [20]: 19.4 µM
GI50 [21]: 4.07 µM
TGI [21]: 46.2 µM
GI50 [22]: 2.1 µM
TGI [22]: 5.5 µM
GI50 [23]: 3.15 µM
TGI [23]: > 100 µM
GI50 [24]: 1.66 µM
TGI [24]: 6.5 µM
GI50 [25]: 2.42 µM
TGI [25]: 6.47 µM
GI50 [26]: 5.77 µM
TGI [26]: > 100 µM
GI50 [27]: 2.34 µM
TGI [27]: > 100 µM
GI50 [28]: 1.95 µM
TGI [28]: 4.56 µM
GI50 [29]: 2.39 µM
TGI [29]: 9.88 µM
GI50 [30]: 3.54 µM
TGI [30]: > 100 µM
GI50 [31]: 1.84 µM
TGI [31]: 3.78 µM
GI50 [32]: 3.8 µM
TGI [32]: > 100 µM
GI50 [33]: 2.27 µM
TGI [33]: 5.39 µM
GI50 [34]: 2.79 µM
TGI [34]: 14.4 µM
GI50 [35]: 1.87 µM
TGI [35]: 3.57 µM
GI50 [36]: 3.4 µM
TGI [36]: > 100 µM
GI50 [37]: 3.04 µM
TGI [37]: > 100 µM
GI50 [38]: 4.16 µM
TGI [38]: > 100 µM
GI50 [39]: 5.09 µM
TGI [39]: > 100 µM
GI50 [40]: 2.42 µM
TGI [40]: 7.86 µM
GI50 [41]: 3.18 µM
TGI [41]: 37.1 µM
GI50 [42]: 5.66 µM
TGI [42]: > 100 µM
GI50 [43]: 2.86 µM
TGI [43]: 26.7 µM
GI50 [44]: 1.97 µM
TGI [44]: 5.63 µM
GI50 [45]: 2.32 µM
TGI [45]: 5.75 µM
GI50 [46]: 2.12 µM
TGI [46]: 6.83 µM
GI50 [47]: 3.64 µM
TGI [47]: > 100 µM
GI50 [48]: 2.33 µM
TGI [48]: 12.5 µM
GI50 [49]: 3.15 µM
TGI [49]: 39.1 µM
GI50 [50]: 3.27 µM
TGI [50]: 15.8 µM
GI50 [51]: 3.22 µM
TGI [51]: 35 µM
GI50 [52]: 1.72 µM
TGI [52]: 3.11 µM
GI50 [53]: 3.23 µM
TGI [53]: > 100 µM
GI50 [54]: 4.62 µM
TGI [54]: > 100 µM
GI50 [55]: 3.71 µM
TGI [55]: 32 µM
GI50 [56]: 1.93 µM
TGI [56]: 5.48 µM
GI50 [57]: 2.36 µM
TGI [57]: 7.55 µM
GI50 [58]: 4.98 µM
TGI [58]: > 100 µM
